Measurements: PubChem BioAssay (NCI)
Where “and” joins values, the source holds several entries; their conditions need not be identical. Equal values may be shown once.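 Values below derive from 48-hour exposures of cells grown in 96-well plates, with endpoints linearly interpolated between the two concentrations bracketing the appropriate inhibition level. The concentration for 50% growth inhibition is given as GI50. TGI: concentration producing complete growth inhibition.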

Experiments:
Experiment in all cases: NCI-60 cell line screen, 48 h
BT-549 breast = tested on: BT-549 breast
CAKI-1 renal = tested on: CAKI-1 renal
HCT-15 colon = tested on: HCT-15 colon
HOP-62 NSCLC = tested on: HOP-62 NSCLC
MCF7 breast = tested on: MCF7 breast
MDA-MB-231 breast = tested on: MDA-MB-231 breast
MOLT-4 leukemia = tested on: MOLT-4 leukemia
OVCAR-3 ovarian = tested on: OVCAR-3 ovarian
SF-268 CNS = tested on: SF-268 CNS
SK-MEL-2 melanoma = tested on: SK-MEL-2 melanoma

SMILES	GI50 (BT-549 breast) [µM]	TGI (BT-549 breast) [µM]	GI50 (CAKI-1 renal) [µM]	TGI (CAKI-1 renal) [µM]	GI50 (HCT-15 colon) [µM]	TGI (HCT-15 colon) [µM]	GI50 (HOP-62 NSCLC) [µM]	TGI (HOP-62 NSCLC) [µM]	GI50 (MCF7 breast) [µM]	TGI (MCF7 breast) [µM]	GI50 (MDA-MB-231 breast) [µM]	TGI (MDA-MB-231 breast) [µM]	GI50 (MOLT-4 leukemia) [µM]	TGI (MOLT-4 leukemia)	GI50 (OVCAR-3 ovarian) [µM]	TGI (OVCAR-3 ovarian) [µM]	GI50 (SF-268 CNS) [µM]	TGI (SF-268 CNS) [µM]	GI50 (SK-MEL-2 melanoma) [µM]	TGI (SK-MEL-2 melanoma) [µM]
CCOC(=O)/C(=C/c1ccc([N+](=O)[O-])cc1)C(=O)c1ccccc1	2.04	4.37	2.56	7.13	1.99	4.51	2.28	6.07	2.32	8.94	2.34	5.24	3.01	9.38 µM	2.56	5.96	2.83	10.7	2.24	5.15
COc1cc(/C=C2\CN(C)C/C(=C\c3cc(OC)c(OC)c(OC)c3)C2=O)cc(OC)c1OC	0.295	0.923	0.288	0.951	0.214	0.555	0.36	1.13	0.317	1.83	0.336	1.03	0.323	4.5 µM	0.328	0.892	0.346	1.6	0.305	0.959
O=C1N=C(c2ccccc2)OC1C(=O)c1ccccc1 (stereo not drawn)		> 100		> 100		> 100		> 100		> 100		> 100		> 100 µM		> 100		> 100		> 100
COc1ccc(N(CC(=O)NCCC[Te]c2ccccc2)C(=O)CCSC2=C(C)C(=O)c3ccccc3C2=O)cc1	0.508	3.43	2.25	6.24	0.673	3.21	0.582	1.58	0.585	11.3	1.22	3.46	0.911		1.44	3.19	1.11	3.99	2.31	5.49
CCOC(=O)c1ccc(N(CCOS(C)(=O)=O)CCOS(C)(=O)=O)cc1C	34.1	> 100	6.32	27.1	28.2	> 100	17.6	55	17.5	> 100	77.9	> 100	7.01	> 100 µM	18.8	44	22	82.7	28.6	67.5
COc1cc(/C=C/C(=O)c2ccc(Nc3ncnc4ccccc34)cc2)cc(OC)c1	3.34	11.9	19.3	> 100	7.63	48.7	7.13	22.1	1.84	5.79	13.5	49.1	2.4	17.1 µM	4	13.5	3.06	12.2	16.2	57.7
C=C1C(=O)O[C@@H]2C(=O)[C@@H](C)[C@@H]3C=CC(=O)[C@@]3(C)[C@@H](OC(=O)/C(C)=C\C)[C@H]12		2.01		0.686		2.27		24.8		4.93		3.6		2.65 µM		3.67		6.22		9.89
O=C(Nc1n[nH]c2nc(-c3ccco3)ccc12)C1CC1	> 25	> 25	> 25	> 25	> 25	> 25	> 25	> 25	> 25	> 25	> 25	> 25	> 25	> 25 µM	> 25	> 25	> 25	> 25	> 25	> 25
COc1cc(C#N)cc(OC)c1OCCOCCOc1c(OC)cc(C#N)cc1OC	25.3	73.2	> 100	> 100	> 100	> 100	> 100	> 100	63.4	> 100	88.9	> 100	21.3	> 100 µM	> 100	> 100	> 100	> 100	> 100	> 100
CNNCc1ccc(C(=O)NC(C)C)cc1		> 500	> 500	> 500	> 500	> 500	> 500	> 500		> 500		> 500	> 500	426 µM and > 500 µM		> 472		> 500		> 500
Clc1cc(Cl)c(Cl)c(-c2nc(-c3cccnc3)cs2)c1	20.6	70.2	7.43	78.7	16	42.5	23.5	83.8	10.4	> 100	53	> 100	39.1	> 100 µM	16.2	81.9	17.9	69.8	22.1	81.9
O=C(O)c1ccc2c(c1Nc1ccccc1)C(=O)c1ccccc1C2=O	16.5	70	16	47.1	72.8	> 100	35.6	> 100	38.1	> 100	46.2	> 100	> 100	> 100 µM	20.7	> 100	34.6	> 100	51.7	> 100
O=C1/C(=C\C(Cl)=C/c2ccc([N+](=O)[O-])cc2)SC(=S)N1CCc1ccc(O)cc1	0.332	1.28	0.548	1.53	0.246	0.741	1.41	4.22	0.365	1.66	0.449	2.03	0.352	> 100 µM	0.4	1.43	0.831	2.77	2.01	4.37
Cc1c2c(nn1C(=O)c1nn(-c3ccc(Cl)cc3)cc1O)-c1ccccc1CC2	0.0306	> 100	0.0971	6.85	0.0496	> 100	0.0432	> 100	0.115	> 100	1.62	> 100	0.0415	> 39.5 µM	0.185	1.55	0.0469	> 100	55.4	> 100
Cc1cccc2c(N=Nc3ccc(S(N)(=O)=O)cc3)c(O)[nH]c12	> 25	> 25	> 25	> 25	> 25	> 25	> 25	> 25	> 25	> 25	> 25	> 25	> 25	> 25 µM	> 25	> 25	> 25	> 25	> 25	> 25
CC#CS(=O)(=O)c1ccccc1		20.8		2.36		9.4		47.2		40.9		22.8		1.43 µM		3.59		35.2		32.5
CCOC(=O)c1c(C)nc2ccc(Cl)cc2c1-c1ccccc1	22.5	57.2	21.1	55	16.9	44.6	15	31.7	24	70.4	17.1	38.4	16.3	43.4 µM	19	43.1	19.3	44.4	15	34.1
Nc1ncnc2c1nc(-c1ccccc1)n2C1OC(CO)C(O)C1O (stereo not drawn)		> 100		> 100		> 100		> 100		> 100		> 100		> 100 µM		> 100		> 100		> 100
